Measurements from the supplement of paper PMC3974653.
Where a name gives a salt, the structure may show the parent alone.

Tested on: MTT (mouse pheochromocytoma)
Experiment: IC50 of cell viability (ATP content)
Details: (24 or 48 h)
How it was run: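 Library compounds in DMSO (23 nl by pintool, 8 concentrations, final 0.5 nM to 46 µM) were applied for 24 or 48 hrs to MTT mouse pheochromocytoma cells that had been cultured overnight at 37°C, 5% CO2 in white 1536-well plates. Cell viability was measured by CellTiter-Glo ATP luminescence, read after 15 minutes, with positive-control wells set at 100% and DMSO wells at 0%. A four-parameter logistic fit of the normalised signals yielded the IC50.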

| SMILES | IC50 of cell viability [µM] |
| --- | --- |
| C[C@]12CC[C@H]3[C@@H](CC/C4=C/C(=O)CC[C@]34C)[C@@H]1CC[C@H]2O [Testosterone] | > 46 |
| COc1cc2c(cc1OC)C1CC(=O)C(CC(C)C)CN1CC2 (stereo unspecified) [Tetrabenazine] | > 46 |
| CN(C)[C@@H]\1[C@@H]2C[C@H]3\C(=C(\O)[C@@]2(O)C(=O)\C(=C1O)C(N)=O)C(=O)C4=C(C=CC=C4O)[C@@]3(C)O [Tetracycline hydrochloride] | > 46 |
| CCCCCCCCCCCCCC(=O)OC(C)C [Tetradecanoic acid, 1-methylethyl ester] | > 46 |
| CC[N+](CC)(CC)CC.[Cl-] [Tetraethylammonium chloride] | > 46 |
| NCCNCCNCCNCCN [Tetraethylenepentamine] | > 46 |
| C1C[C@@H](\C2=N\CCN2)C3=C(C1)C=CC=C3 [Tetrahydrozoline hydrochloride] | > 46 |
| O=C1OC(c2cc(I)c(O)c(I)c2)(c2cc(I)c(O)c(I)c2)c2ccccc21 [Tetraiodophenolphthalein] | > 46 |
| CN(C)C(=S)SSC(=S)N(C)C [Tetramethylthiuram disulfide] | > 46 |
| COC\1=C\C=C/2[C@H]3CC4=C5C(=C(OC)C=C4)OC1[C@@]25CCN3C (stereo partly specified) [Thebaine] | > 46 |
| CN1CCC(N(Cc2cccs2)c2ccccc2)CC1 [Thenalidine] | > 46 |
| Cn1cnc2c1c(=O)[nH]c(=O)n2C [Theobromine] | > 46 |
| Cn1c(=O)c2c(ncn2CCOC(=O)C(C)(C)Oc2ccc(Cl)cc2)n(C)c1=O [Theofibrate] | > 46 |
| C[S+](=O)([O-])c1ccc([C@H](O)[C@H](CO)NC(=O)C(Cl)Cl)cc1 [Thiamphenicol] | > 46 |
| CCSc1ccc2c(c1)N(CCCN1CCN(C)CC1)c1ccccc1S2.O=C(O)C[C@@H](O)C(=O)O.O=C(O)C[C@@H](O)C(=O)O [Thiethylperazine malate] | > 46 |
| COC1=C(OC)C2=C(CC[C@@H](NC(C)=O)C/3=C/C(=O)/C(=C/C=C23)SC)C=C1O[C@@H]4O[C@@H](CO)[C@@H](O)[C@@H](O)[C@H]4O [Thiocolchicoside] | > 46 |
| O=C(CS)Nc1ccccc1 [Thioglycolic acid anilide] | > 46 |
| CN1CCN(CCCN2c3ccccc3Sc3ccc([S+](=O)([O-])N(C)C)cc32)CC1.C[S+](=O)([O-])O.C[S+](=O)([O-])O [Thioproperazine dimesylate] | > 46 |
| O=C(O)c1ccccc1S [Thiosalicylic acid] | > 46 |
| S=P(N1CC1)(N1CC1)N1CC1 [Thiotepa] | > 46 |
| CCN(CC)CCSC(=O)C(c1ccccc1)c1ccccc1 [Thiphenamil hydrochloride] | > 46 |
| CCCCCCCCCCCCCCCC[N+](C)(C)CCN(Cc1ccc(OC)cc1)c1ncccn1 [Thonzonium bromide] | > 46 |

| SMILES | IC50 of cell viability [µM] |
| --- | --- |
| Cc1ccc(C(C)C)c(O)c1 [Thymol] | > 46 |
| [H][C@]1(CCCN(CC\C=C(\C2=C(C)C=CS2)C3=C(C)C=CS3)C1)C(O)=O [Tiagabine hydrochloride] | > 46 |
| CCN(CC)CCNC(=O)c1cc([S+](C)(=O)[O-])ccc1OC [Tiapride hydrochloride] | > 46 |
| C[C@@H](C(=O)O)c1ccc(C(=O)c2ccccc2)s1 [Tiaprofenic acid] | > 46 |
| [Na+].[Na+].CC1(C)S[C@H]2[C@H](NC(=O)[C@H](C([O-])=O)C3=CSC=C3)C(=O)[N@]2[C@H]1C([O-])=O [Ticarcillin sodium] | > 46 |
| O=C(O)COc1ccc(C(=O)c2cccs2)c(Cl)c1Cl [Ticrynafen] | > 46 |
| CN(C)c1cc(NC(=O)CNC(C)(C)C)c(O)c2c1C[C@H]1C[C@H]3[C@H](N(C)C)C(O)=C(C(N)=O)C(=O)[C@]3(O)C(O)=C1C2=O [Tigecycline] | > 46 |
| CCN[C@@]1(c2cccs2)CCCCC1=O [Tiletamine hydrochloride] | > 46 |
| Cc1ccc(O)c2ncccc12 [Tiliquinol] | > 46 |
| [2H]c1c([2H])c([2H])c2c([nH]c(=S)n2C2CCN(CCCC(=O)c3ccc(F)cc3)CC2)c1[2H] [Timiperone] | > 46 |
| CC[S+](=O)([O-])CCn1c([N+](=O)[O-])cnc1C [Tinidazole] | > 46 |
| CCOC(=O)Nc1ccc2c(c1)N(C(=O)CN(C)C)c1ccccc1CC2 [Tiracizine] | > 46 |
| O=C(O)Cc1cc(I)c(Oc2ccc(O)c(I)c2)c(I)c1 [Tiratricol, 3,3',5-triiodothyroacetic acid] | > 46 |
| CCCC[S+](=O)([O-])N[C@@H](Cc1ccc(OCCCCC2CCNCC2)cc1)C(=O)O.Cl.O [Tirofiban] | > 46 |
| Clc1ccc2nsnc2c1NC1=NCCN1 [Tizanidina] | > 46 |
| NC[C@@H]1O[C@@H](O[C@H]2[C@@H](O)[C@H](O[C@@H]3O[C@@H](CO)[C@H](O)[C@H](N)[C@@H]3O)[C@@H](N)C[C@H]2N)[C@H](N)C[C@@H]1O [Tobramycin] | > 46 |
| Cc1cccc(C)c1NC(=O)[C@H](C)N [Tocainide hydrochloride] | > 46 |
| Cc1c(C)c2c(c(C)c1OC(=O)CCC(=O)OCCO)CC[C@](C)(CCC[C@H](C)CCC[C@H](C)CCCC(C)C)O2 [Tocofersolan] | > 46 |
| CCOC(=O)NNc1nncc2ccccc12 [Todralazine hydrochloride] | > 46 |
| C1C\N=C(\CC2=CC=CC=C2)N1 [Tolazoline hydrochloride] | > 46 |
| Cc1ccc(C(=O)c2ccc(CC(=O)[O-])n2C)cc1.O.O.[Na+] [Tolmetin sodium salt dihydrate] | > 46 |
| Cc1cccc(N(C)C(=S)Oc2ccc3ccccc3c2)c1 [Tolnaftate] | > 46 |

| SMILES | IC50 of cell viability [µM] |
| --- | --- |
| Cc1ccc(C(=O)[C@H](C)CN2CCCCC2)cc1 [Tolperisone HCl] | > 46 |
| COc1ccc2c(C(=S)N(C)CC(=O)O)cccc2c1C(F)(F)F [Tolrestat] | > 46 |
| Cc1ccc(O)c([C@H](CCN(C(C)C)C(C)C)c2ccccc2)c1 [Tolterodina] | > 46 |
| Cc1cc(-n2c(=O)[nH]c(=O)n(C)c2=O)ccc1Oc1ccc([S+](=O)([O-])C(F)(F)F)cc1 [Toltrazuril sulfone] | > 46 |
| Cc1ccccc1 [Toluene] | > 46 |
| Cc1cc2nc3ccc(N(C)C)cc3[s+]c2cc1N [Toluidine blue] | > 46 |
| CNCCC(Oc1ccccc1C)c1ccccc1 (stereo unspecified) [Tomoxetine] | > 46 |
| Cc1cccc(Nc2ccncc2[S+](=O)([O-])NC(=O)NC(C)C)c1 [Torsemide] | > 46 |
| CCCCNc1c(C(=O)OCC)c(C)nc2c1cnn2CC [Tracazolate hydrochloride] | > 46 |
| CCON=C(CC)C/1=C(O)/CC(CC1=O)C2=C(C)C=C(C)C=C2C (stereo unspecified) [Tralkoxydim] | > 46 |
| COc1cccc([C@@]2(O)CCCC[C@@H]2CN(C)C)c1 [Tramadolum] | > 46 |
| CCOC(=O)[C@H](CCc1ccccc1)N[C@@H](C)C(=O)N1[C@H](C(=O)O)C[C@H]2CCCC[C@@H]21 [Trandolapril] | > 46 |
| NCC1CCC(C(=O)O)CC1 (stereo unspecified) [Tranexamic acid] | > 46 |
| COc1ccc(/C=C/C(=O)Nc2ccccc2C(=O)O)cc1OC [Tranilast] | > 46 |
| OCCOCCN1CCN(C(c2ccccc2)c2ccc(Cl)cc2)CC1 (stereo unspecified) [Tranquizine] | > 46 |
| N[C@@H]1C[C@H]1c1ccccc1 [Tranylcypromine hydrochloride] | > 46 |
| ClC1=CC(=CC=C1)N2CCN(CCCN3\N=C4\C=C/C=C\N4C3=O)CC2 [Trazodone hydrochloride] | > 46 |
| CC(=O)OCC(COC(C)=O)OC(C)=O [Triacetin] | > 46 |
| CC(C)(C)C(O)C(Oc1ccc(Cl)cc1)n1cncn1 (stereo unspecified) [Triadimenol] | > 46 |
| CC1(C)O[C@@H]2C[C@H]3[C@@H]4CCC/5=C/C(=O)/C=C\[C@]5(C)[C@@]4(F)[C@@H](O)C[C@]3(C)[C@@]2(O1)C(=O)CO [Triamcinolone acetonide] | > 46 |
| CC(=O)OCC(=O)[C@@]1(O)[C@@H](C[C@H]2[C@@H]3CC\C4=C\C(=O)\C=C/[C@]4(C)[C@@]3(F)[C@@H](O)C[C@]12C)OC(C)=O [Triamcinolone diacetate] | > 46 |
| CC(C)(C)CC(=O)OCC(=O)[C@@]12OC(C)(C)O[C@@H]1C[C@H]1[C@@H]3CCC4=CC(=O)C=C[C@]4(C)[C@@]3(F)[C@@H](O)C[C@]12C [Triamcinolone hexacetonide] | > 46 |
